One test addresses T1, kappa opioid receptors (Cavia porcellus, UniProt P41144).
T1 construct: a strip of longitudinal muscle with the myenteric plexus attached was prepared; from tissue; host or cells: guinea pig ileal longitudinal muscle with myenteric plexus (Dunkin-Hartley males)
The test is described as follows: Guinea pig ileal longitudinal muscle (GPI), antagonism of ethylketazocine (EK). The class given is cell-based. Particulars: for Selectivity κ/μ: GPI EK versus GPI morphine; for Selectivity κ/δ: GPI EK versus MVD DADLE; for kappa antagonist potency compared with norBNI: GPI, EK; for Kb: 15 min incubation, Ke=[antagonist]/(IC50 ratio-1). As for the experimental part:
(§1) Physiological data for guinea pig ileal longitudinal muscle (GPI) was obtained by the methodology of H. P. Rang, “Stimulant Actions of Volatile Anaesthetics on Smooth Muscle,” Brit. […] In vivo assays were done s.c. on mice.
(§2) 1. Guinea Pig Ileal Longitudinal Muscle (GPI). Ilea from guinea pigs were taken approximately 10 cm from the ileocecal junction, and a strip of longitudinal muscle with the myenteric plexus attached was prepared by the method of […] et al., Brit. […] A 1 cm portion of this strip was then mounted between two platinum electrodes placed in a 10 ml organ bath and connected to an isometric transducer; contractions were recorded on a polygraph. Contractions of the ileal strip were initiated by supramaximal rectangular pulses in all preparations (80 V of 0.5 ms duration at a frequency of 0.1 Hz). […] The organ bath was maintained at 36°-37° C. The longitudinal muscle strip was allowed to equilibrate with continuous stimulation for a minimum of 90 min. Cumulative concentration-response curves were determined after drugs were added to the bath in preselected amounts and washed out with buffer after noting their maximum effects.
(§3) Concentration-response curves were obtained in the absence (control) and the presence of the antagonist are expressed as IC50 values. The IC50 ratio represents the IC50 in the presence of the antagonist divided by the control IC50 value in the same tissue. Therefore, a high IC50 ratio represents a correspondingly high degree of antagonism at a particular receptor. This IC50 ratio was employed to calculate the Ke value using the equation Ke=[antagonist]/(IC50 ratio-1). Therefore, a low Ke represents a correspondingly high degree of binding at a particular receptor.

Another test addresses mu opioid receptors. Particulars: agonist morphine. As to the method:
as §1, §2, §3

In a further test the target is delta opioid receptors (Mus musculus, UniProt P32300). Briefly: Mouse vas deferens (MVD), antagonism of DADLE (D). The class given is cell-based. On the set-up: Both vasa deferentia were dissected out of mice and mounted singly; from tissue; host or cells: mouse vas deferens (Swiss-Webster males) for A3; whole mouse in vivo for A7. Particulars: antagonist 100 nM; agonist DADLE. As to the method: 2. Mouse Vas Deferens (MVD). This assay was performed according to the description by G. Henderson et al., Brit. […] Both vasa deferentia were dissected out of mice and mounted singly through two platinum ring electrodes in a 10 ml organ bath. The bath contained Krebs bicarbonate solution that was continuously bubbled with 95% O2 and 5% CO2. The organ bath was maintained at 37° C. The tissue was attached to an isometric transducer and stimulated transmurally with rectangular pulses ([…], 1 ms duration, supramaximal voltage). Drugs were added cumulatively to the bath in preselected amounts and washed out after noting their maximum effects.
delta opioid receptors, sequence (P32300 whole entry): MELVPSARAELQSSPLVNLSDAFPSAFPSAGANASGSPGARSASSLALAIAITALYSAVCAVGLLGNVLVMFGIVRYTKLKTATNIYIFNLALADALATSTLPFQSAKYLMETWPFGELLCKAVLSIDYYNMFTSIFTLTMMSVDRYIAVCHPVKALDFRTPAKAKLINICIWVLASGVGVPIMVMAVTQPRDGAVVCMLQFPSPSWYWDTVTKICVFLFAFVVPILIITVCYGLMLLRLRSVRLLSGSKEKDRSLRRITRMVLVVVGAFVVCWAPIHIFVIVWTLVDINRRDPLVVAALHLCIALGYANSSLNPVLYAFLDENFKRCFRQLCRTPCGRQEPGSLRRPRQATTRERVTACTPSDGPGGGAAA
as §3

Test [1] deals with rats that were selectively bred for high voluntary ethanol drinking. The following applies: compared to peptidyl delta-opioid receptor antagonists; cited from earlier work.
The next test deals with rat model of alcoholism. Particulars: cited from earlier work.
For test [2] the following is noted: recovering alcoholics; cited from earlier work.
In a further test the target is delta opioid receptor (Rattus norvegicus, UniProt P33533). The following applies: cited from earlier work.
delta opioid receptor, sequence (P33533 whole entry): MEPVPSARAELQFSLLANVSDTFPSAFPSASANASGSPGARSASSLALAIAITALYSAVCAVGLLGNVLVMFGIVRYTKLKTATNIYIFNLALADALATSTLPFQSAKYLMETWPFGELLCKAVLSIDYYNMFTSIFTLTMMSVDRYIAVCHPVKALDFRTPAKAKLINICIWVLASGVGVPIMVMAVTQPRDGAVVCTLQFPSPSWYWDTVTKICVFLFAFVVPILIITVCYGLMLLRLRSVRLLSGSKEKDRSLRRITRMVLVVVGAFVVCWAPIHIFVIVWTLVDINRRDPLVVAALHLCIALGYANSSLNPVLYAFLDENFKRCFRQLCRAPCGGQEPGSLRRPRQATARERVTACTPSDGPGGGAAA
The mark [3] stands for this setting: antagonist 100 nM, agonist ethylketazocine.
Setting [4] is: antagonist 100 nM, IC50 agonist + antagonist/IC50 agonist, agonist ethylketazocine.
Where [5] appears, read: antagonist 10 nM, agonist ethylketazocine.

Where two headings read alike, the source gives them in different places.

T1 sequence (P41144 whole entry): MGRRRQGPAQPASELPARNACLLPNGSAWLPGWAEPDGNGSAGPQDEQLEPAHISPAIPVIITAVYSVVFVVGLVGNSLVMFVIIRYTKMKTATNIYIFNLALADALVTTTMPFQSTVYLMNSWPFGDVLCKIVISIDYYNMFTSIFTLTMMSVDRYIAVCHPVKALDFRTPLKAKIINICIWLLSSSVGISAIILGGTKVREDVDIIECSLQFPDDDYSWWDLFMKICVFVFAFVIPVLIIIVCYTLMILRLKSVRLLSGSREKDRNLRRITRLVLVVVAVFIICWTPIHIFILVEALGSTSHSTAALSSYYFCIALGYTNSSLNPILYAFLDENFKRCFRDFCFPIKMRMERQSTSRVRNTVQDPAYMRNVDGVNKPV

For the compound “17-(Cyclopropylmethyl)-6,7-dehydro-4,5α-epoxy-3,14-dihydroxy-5 ′-[N^2-(4-dimethylaminobutyrylamidino)methyl]-6,7-2′,3′-indolomorphinan Trihydrochloride [Compound 44]”, on kappa opioid receptors, the “Selectivity κ/μ” value was 61, the “Selectivity κ/δ” value turned out to be 250 and the “kappa antagonist potency compared with norBNI” value is “more potent”. For the same compound, on kappa opioid receptors (GPI/MVD), the “kappa selectivity compared with norBNI” value is given as “more selective”; the “potency and selectivity among the compounds” value is “greatest poteny and selectivity”; the “potency and selectivity compared with norBNI” value was “more potent and selective”. Besides, the Kb (as a rule, the equilibrium dissociation constant of an antagonist, usually derived from a functional assay) at kappa opioid receptors (setting [3]) was determined as 0.147 nM. Also, on kappa opioid receptors (setting [4]), the “IC50 ratio, EK (GPI)” value stood at 679 ± 273. Besides, on mu opioid receptors (antagonist 100 nM), the “IC50 ratio, M (GPI)” value is recorded as 12.1 ± 3.4 and the “Ke, M (GPI)” value was 9.01 nM. Further, the “IC50 ratio, D (MVD)” value at delta opioid receptors was 2.71 ± 0.44.

Turning to “17-(Cyclopropylmethyl)-6,7-dehydro-4,5α-epoxy-3,14-dihydroxy-5′-[(N^2-3-methylpentanamidino)methyl]-6,7-2′,3′-indolomorphinan Dihydrochloride [Compound 2]”, at kappa opioid receptors, the “Selectivity κ/μ” value is reported as 12, the “Selectivity κ/δ” value is reported as 310 and the “kappa antagonist potency compared with norBNI” value is recorded as “more potent”. Further, the Kb at kappa opioid receptors (setting [3]) was determined as 0.25 nM. Also, the “IC50 ratio, EK (GPI)” value on kappa opioid receptors (setting [4]) is given as 394 ± 97. Moreover, at mu opioid receptors (antagonist 100 nM), the “IC50 ratio, M (GPI)” value was found to be 31.6 ± 10.7 and the “Ke, M (GPI)” value was 3.27 nM. The “IC50 ratio, D (MVD)” value on delta opioid receptors was found to be 1.19 ± 0.51.

As to “17-(Cyclopropylmethyl)-6,7-dehydro-4,5α-epoxy-3,14-dihydroxy-5′-[(N^2-acetamidino)methyl]-6,7-2′,3′-indolomorphinan Dihydrochloride [Compound 3]”, on kappa opioid receptors, the “Selectivity κ/μ” value came to 9 and the “Selectivity κ/δ” value was 44. The Kb on kappa opioid receptors (setting [3]) turned out to be 0.81 nM. The “IC50 ratio, EK (GPI)” value at kappa opioid receptors (setting [4]) worked out at 124 ± 33. Further, on mu opioid receptors (antagonist 100 nM), the “IC50 ratio, M (GPI)” value stood at 13.4 ± 2.2 and the “Ke, M (GPI)” value is 8.04 nM. In addition, the “IC50 ratio, D (MVD)” value at delta opioid receptors was 2.81 ± 0.62.

Regarding “17-(Cyclopropylmethyl)-6,7-dehydro-4,5α-epoxy-3,14-dihydroxy-5′-[(N^2-butyramidino)methy]-6,7-2′,3′-indolomorphinan Dihydrochloride [Compound 5]”, on kappa opioid receptors, the “Selectivity κ/μ” value was 10, the “Selectivity κ/δ” value was found to be 62 and the “kappa antagonist potency compared with norBNI” value is on record as “more potent”. For the same compound, the Kb on kappa opioid receptors (setting [3]) amounted to 0.54 nM. Further, the “IC50 ratio, EK (GPI)” value on kappa opioid receptors (setting [4]) is given as 185 ± 49. Further, on mu opioid receptors (antagonist 100 nM), the “IC50 ratio, M (GPI)” value was 18.2 ± 3.9 and the “Ke, M (GPI)” value was found to be 5.84 nM. For the same compound, on delta opioid receptors, the “IC50 ratio, D (MVD)” value was found to be 3.00 ± 0.51.

In the case of “17-(Cyclopropylmethyl)-6,7-dehydro-4,5α-epoxy-3,14-dihydroxy-5′-[(N^2-propanamidino)methyl]-6,7-2′,3′-indolomorphinan Dihydrochloride [Compound 1]”, on kappa opioid receptors, the “Selectivity κ/μ” value is listed as 14 and the “Selectivity κ/δ” value is 69. On kappa opioid receptors (setting [3]), the Kb is given as 0.66 nM. In addition, on kappa opioid receptors (setting [4]), the “IC50 ratio, EK (GPI)” value turned out to be 159 ± 43. Also, on mu opioid receptors (antagonist 100 nM), the “IC50 ratio, M (GPI)” value came out at 11.3 ± 2.6 and the “Ke, M (GPI)” value is listed as 9.71 nM. Moreover, the “IC50 ratio, D (MVD)” value at delta opioid receptors came to 2.28 ± 0.57.

For the compound “17-(Cyclopropylmethyl)-6,7-dehydro-4,5α-epoxy-3,14-dihydroxy-5′-[N-(β-diethylamino)ethylcarboxyamido]-6,7-2′,3′-indolomorphinan Dihydrochloride [Compound 38]”, on kappa opioid receptors, the “Selectivity κ/μ” value turned out to be 16, the “Selectivity κ/δ” value is 329 and the “kappa antagonist potency compared with norBNI” value is “more potent”. Further, at kappa opioid receptors (setting [5]), the “IC50 ratio, EK (GPI)” value is listed as 31.8 ± 7.7 and the “Ke, EK (GPI)” value is given as “(10 nm) 0.320 nM”. In addition, at mu opioid receptors (antagonist 50 nM), the “IC50 ratio, M (GPI)” value turned out to be 17.1 ± 2.1 and the “Ke, M (GPI)” value is listed as “(50 nm) 3.14 nM”. Further, the “IC50 ratio, D (MVD)” value at delta opioid receptors amounted to 1.95 ± 0.56.

Regarding “17-(Cyclopropylmethyl)-6,7-dehydro-4,5α-epoxy-3,14-dihydroxy-5′-[N-(β-dimethylamino)ethylcarboxamido]-6,7-2′,3′-indolomorphinan Dihydrochloride [Compound 45]”, on kappa opioid receptors, the “Selectivity κ/μ” value is 6 and the “Selectivity κ/δ” value came out at 117. Besides, the Kb at kappa opioid receptors (setting [3]) stood at 0.568 nM. Besides, the “IC50 ratio, EK (GPI)” value on kappa opioid receptors (setting [4]) came to 177 ± 54. In addition, at mu opioid receptors (antagonist 100 nM), the “IC50 ratio, M (GPI)” value stood at 30.3 ± 3.6 and the “Ke, M (GPI)” value was 3.41 nM. Further, on delta opioid receptors, the “IC50 ratio, D (MVD)” value is 1.51 ± 0.42.

On to “17-(Cyclopropylmethyl)-6,7-dehydro-4,5α-epoxy-3,14-dihydroxy-5′-[N^2-(N,N-dimethylglycinamidino)methyl]-6,7-2′,3′-indolomorphinan Trihydrochloride [Compound 42]”, for which, on kappa opioid receptors, the “Selectivity κ/μ” value amounted to 55, the “Selectivity κ/δ” value came out at 111 and the “kappa antagonist potency compared with norBNI” value is on record as “more potent”. For the same compound, at kappa opioid receptors (GPI/MVD), the “kappa selectivity compared with norBNI” value is given as “more selective”; the “potency and selectivity compared with norBNI” value was “more potent and selective”. Further, the Kb at kappa opioid receptors (setting [3]) amounted to 0.183 nM. For the same compound, the “IC50 ratio, EK (GPI)” value on kappa opioid receptors (setting [4]) is on record as 547 ± 125. For the same compound, on mu opioid receptors (antagonist 100 nM), the “IC50 ratio, M (GPI)” value was determined as 10.0 ± 0.4 and the “Ke, M (GPI)” value was determined as 11.1 nM. Besides, on delta opioid receptors, the “IC50 ratio, D (MVD)” value turned out to be 4.91 ± 1.38 and the “Ke, D (MVD)” value is on record as 25.6 nM.

Take “17-(Cyclopropylmethyl)-6,7-dehydro-4,5α-epoxy-3,14-dihydroxy-51′-[(4-dimethylaminobutyryl)aminomethyl]-6,7-2′,3′-indolomorphinan Dihydrochloride [Compound 43]”: on kappa opioid receptors, the “Selectivity κ/μ” value is reported as 10, the “Selectivity κ/δ” value is listed as 166 and the “kappa antagonist potency compared with norBNI” value is on record as “more potent”. Besides, at kappa opioid receptors (setting [3]), the antagonist dissociation constant (Kb) turned out to be 0.505 nM. On kappa opioid receptors (setting [4]), the “IC50 ratio, EK (GPI)” value worked out at 199 ± 62. Also, on mu opioid receptors (antagonist 100 nM), the “IC50 ratio, M (GPI)” value was found to be 19.0 ± 6.2 and the “Ke, M (GPI)” value came out at 5.56 nM. Further, at delta opioid receptors, the “IC50 ratio, D (MVD)” value came to 1.20 ± 0.72.

On to `Oc1ccc2c3c1O[C@H]1c4oc5ccccc5c4C[C@@]4(O)[C@@H](C2)N(CC2CC2)CC[C@]314` [NTB], for which the “suppression of ethanol drinking” value in test [1] is reported as “unexpectedly prolonged suppression of ethanol drinking”.

Take `Oc1ccc2c3c1O[C@H]1c4[nH]c5ccccc5c4C[C@@]4(O)[C@@H](C2)N(CC2CC2)CC[C@]314` [NTI, naltrindole]: in test [1], the “suppression of ethanol drinking” value was “unexpectedly prolonged suppression of ethanol drinking”.

Take `C=CCN1CC[C@]23c4c5ccc(O)c4O[C@H]2C(=O)CC[C@@]3(O)[C@H]1C5` [Naloxone, naloxone]: the “ethanol and water intake” value with rat model of alcoholism is “suppress ethanol but not water intake”.

Regarding `O=C1CC[C@@]2(O)[C@H]3Cc4ccc(O)c5c4[C@@]2(CCN3CC2CC2)[C@H]1O5` [naltrexone], in test [2], the incidence of relapse result is on record as “reduce the incidence of relapse”.

Turning to `Oc1ccc2c3c1OC1c4[nH]c5c(c4CC4(O)C(C2)N(CC2CC2)CC[C@]314)C[C@@]1(O)C2Cc3ccc(O)c4c3[C@@]1(CCN2CC1CC1)[C@H]5O4` (some centres unmarked) [norBinaltorphimine, reference compound], the Kb on kappa opioid receptors (setting [3]) turned out to be 0.56 nM. Further, the “Ke, M (GPI)” value in the test on mu opioid receptors (antagonist 100 nM) is recorded as 14 nM.

For “N,N-diallyl-Tyr-Aib-Aib-Phe-Leu-OH [ICI 174864]”, at delta opioid receptor (ethanol drinking), the duration of action result is “very short duration of action”. Besides, the ethanol drinking result on delta opioid receptor (in vivo) is given as “strongly inhibits ethanol drinking”.

The values are drawn from patent US6534514B1, “Kappa opioid receptor antagonists” (Regents of the University of Minnesota, priority 1993, dated 2003).
